Data: patent US6825363B2, “Compounds useful in optical switching and manufacturing method thereof” (Fuji Xerox Co., Ltd., priority 2002, dated 2004)
Converted amounts (≈) assume the structure as drawn.

Legend:
Solubility in chloroform = assay type: physicochemical; conditions: organic solvent or mixture
Protocol: (§1) For the absorption characteristic of such compounds, absorption spectra were measured by use of a near infrared photospectrometer to confirm that they could be utilized as materials for the optical switch operating at a wavelength of 1.3 μm. Further, for the thermal stability, the thermal decomposition temperature was measured by thermogravimetry and differential thermal analysis to confirm that they were thermally stable materials for the optical switch. Further, their solubility in organic solvents such as chloroform and acetone was confirmed.

[1] = Thermal decomposition temperature by thermogravimetry and differential thermal analysis; assay type: physicochemical
Protocol: as §1

| solubility (Solubility in chloroform) [mg/mL] | decomposition temperature (thermal stability) [1] [°C] | Compound |
| --- | --- | --- |
| 3 (≈ 6.43 mM) | ≥ 200 | CCN(CC)c1cc(O)c2c(c1)OC(=O)/C2=C(/[O-])C1=C2C(O)=CC(=[N+](CC)CC)C=C2OC1=O [Compound (2)] |
| 54 (≈ 93.3 mM) | 202.7 | CC(C)CN(CC(C)C)c1cc(O)c2c(c1)OC(=O)/C2=C(/[O-])C1=C2C(O)=CC(=[N+](CC(C)C)CC(C)C)C=C2OC1=O [Compound (1)] |
